In publication PMC11928584, “H105A peptide eye drops promote photoreceptor survival in murine and human models of retinal degeneration” (Communications Medicine, 2025):
Where a SMILES comes first, the peptide text is derived from it.

What was measured:
[1] = test system: photoreceptors of rd10/Serpinf1-/- mice; assay: ONL thickness (histology, spider plot), rd10/Serpinf1-/- mice; assay type: in vivo, mouse; conditions: daily eye drops, P21
Protocol: Both eyes were oriented before enucleation to allow sectioning along the dorsal/ventral axis. Enucleated eyes from rd10 and rd10/Serpinf1^-/- mice were incised in the cornea and fixed in 2.5% glutaraldehyde for 20 min and then in 10% neutral buffered formalin at 4 °C for at least 48 h, followed by paraffin embedding, sectioning, and staining with either H&E or immunofluorescence procedures. […] For fluorescence microscopy, antibodies, and 0.1 µg/ml DAPI were used to immunostain and counterstain the nuclei, respectively. […] Fluorescence intensity was quantified using ImageJ, and a rectangle was selected around regions of interest (ROIs), channels were split for multiple antibodies, threshold was adjusted, noise was de-speckled, and fluorescence intensity was measured.
To generate spider plots, the ONL thickness was measured from images passing through the optic nerve (ON) acquired with light microscopy of the retina sections stained with H&E or images of retina sections stained with DAPI with a dorsal-ventral orientation. The ONL thickness in the entire retina sections was measured at 5 different positions from both sides of the ON using ImageJ[28]. […]

[2] = Localization of H105A in retina by anti-H105A immunofluorescence; assay type: in vivo; conditions: RhoP23H/+ mice, daily eye drops P14-P19, anti-H105A immunofluorescence
Protocol: To detect the transduced H105A peptide, we used a custom-made monoclonal recombinant Fab antibody raised against H105A (Bio-Rad AbD Serotec GmbH, Puchheim, Germany). The custom-made antibodies were produced by HuCAL® technology with a FLAG-tag for detection. […] Cells were maintained in DMEM 4.5 g/l (Thermo Fisher Scientific, cat. 11960), supplemented with 10% fetal bovine serum (FBS), 100 U/ml penicillin and 100 µg/ml streptomycin (Thermo Fisher Scientific, cat. 15140148) in 5% CO2 and at 37 °C. […] The specificity of the custom antibody to the H105A peptide was assessed by pre-incubation with 400 µM H105A peptide at 25 °C for 1 h before using it for immunodetection. […]
Daily eye-drop-delivered H105A between P14 and P19 penetrated the retina, reached the photoreceptors, and w a s detected throughout the retina, mostly in the IS/OS ( c). […]
(g-i) Negative controls for immunostaining. No staining was detected in untreated Rho P23H/+ retinas at P 19 (g), in sections where the antibody was pre-incubated with 400 µM H105A peptide for one hour (Panel h), or in sections without the primary antibody (i). […]

[3] = Stability of peptide H105A against temperature (storage); assay type: physicochemical
Protocol: Lyophilized peptides were dissolved in sterile HBSS at 1 mg/ml and stored at −20 °C. Before the peptides were used, the peptide solution was brought to room temperature and subjected to centrifugation (Eppendorf, Centrifuge 5430 R) at 20,800 x g for 10 min at 4 °C to clear and separate particulate material. In case a precipitate was found, the pH of the solution was adjusted to neutral pH with either NaOH or HCl and all peptides were soluble. The concentration of peptide solutions was determined using spectrophotometry (NanoDrop, Thermo Fisher Scientific). The stability of peptide H105A against temperature was performed and summarized in Supplementary Table 2.
Supplementary Table 2. Stability of 17- mer[H105A] peptide.
Concentration (mg/mL) Store Concentration (mg/mL)
*FT, Freeze and thaw cycles daily

Row | SMILES | OS length and ONL thickness vs vehicle-treated or untreated eyes [1] | localization of H105A in retina [2] | Concentration, Day 8 ([3]; sample 1, stored at RT) [µg/mL] | Concentration, Day 8 ([3]; sample 2, stored at 4°C) [µg/mL] | Concentration, Day 8 ([3]; sample 3, stored at -20°C) [µg/mL] | Concentration, Day 8 ([3]; sample 4, stored at -20°C [FT], freeze and thaw cycles daily) [µg/mL]
1 | CC[C@H](C)[C@H](NC(=O)[C@H](CC(C)C)NC(=O)[C@H](CC(=O)O)NC(=O)[C@H](Cc1ccc(O)cc1)NC(=O)[C@H](Cc1ccc(O)cc1)NC(=O)[C@H](CC(C)C)NC(=O)[C@H](C)NC(=O)[C@H](CCCNC(=N)N)NC(=O)[C@H](C)NC(=O)[C@@H](NC(=O)[C@@H](NC(=O)[C@H](CO)NC(=O)[C@H](CCC(=O)O)NC(=O)[C@@H](NC(=O)[C@H](CCCNC(=N)N)NC(=O)[C@@H](N)CCC(N)=O)[C@@H](C)O)[C@@H](C)CC)[C@@H](C)CC)C(=O)N[C@@H](CO)C(=O)O [H105A] (H-QRTESIIARALYYDLIS-OH) | longer OS and thicker outer nuclear layer | reaching the photoreceptors | 1080 | 1160 | 1080 | 1280
2 | CC[C@H](C)[C@H](NC(=O)[C@H](CC(C)C)NC(=O)[C@H](CC(=O)O)NC(=O)[C@H](Cc1ccc(O)cc1)NC(=O)[C@H](Cc1ccc(O)cc1)NC(=O)[C@H](CC(C)C)NC(=O)[C@H](C)NC(=O)[C@H](CCCNC(=N)N)NC(=O)[C@H](Cc1c[nH]cn1)NC(=O)[C@@H](NC(=O)[C@@H](NC(=O)[C@H](CO)NC(=O)[C@H](CCC(=O)O)NC(=O)[C@@H](NC(=O)[C@H](C)NC(=O)[C@@H](N)CCC(N)=O)[C@@H](C)O)[C@@H](C)CC)[C@@H](C)CC)C(=O)N[C@@H](CO)C(=O)O [R99A] (H-QATESIIHRALYYDLIS-OH) | no effect | – | – | – | – | –
